Data reported in US11091511B2, “Panaxdiol-type ginsenoside derivative, preparation method therefor and use thereof” (ARMY MEDICAL UNIVERSITY, priority 2016, dated 2021).
Marks after values point to notes of the source that are not given here.

How the values were obtained:
apoE−/− mice [1] = assay: Atherosclerotic plaque area to total aortic area in apoE-/- mice on high-fat diet (Sudan IV staining); type: in vivo, mouse; conditions: intragastric 15 weeks, compounds 30 mg/(kg·d), simvastatin 10 mg/(kg·d), x ± s, n = 5, saline control 14.67 ± 3.58
Excerpt: The effects of the compounds prepared in Examples 1-30 of the present invention on the percentages of areas of atherosclerotic plaque formation to the area of the entire artery in apoE−/− mice with a high-fat diet and the levels of low-density lipoprotein cholesterol and the levels of high-density lipoprotein, the specific steps are as follows: 1. animals: 160 ten-week-old, healthy and clean-grade apoE−/− mice (purchased from Peking University Experimental Animal Center), males, weight: 22-25 g, were housed in separate cages in a sterile laminar feeding room and fed freely. The mice were fed by a high-fat diet (conventional feed+0.15% cholesterol+21% lard) for 25 weeks, the room temperature was kept at 24° C., relative humidity: 50%, illumination time 7:30-19:30. 2. Grouping, administration method: after 10 weeks of feeding, the animals were divided into the following 32 groups (n=5) by weight in a balanced and random manner, and killed 15 weeks after administration. Normal saline control group: normal saline, intragastric administration. Positive control group: simvastatin 10 mg/(kg·d), intragastric administration. The compound groups prepared in Examples 1-30 of the present invention (30 groups in total): each was intragastric administered 30 mg/(kg·d). (1) Analysis of the area of atherosclerotic plaque and its percentage to total area: after the animals were killed, the aortas were separated, from the roots of the aortas to the terminal bifurcations of the abdominal aortas. After formalin fixation, the aortas were stained with Sudan IV, the red stained parts were the areas of atherosclerotic lesions. The percentage of the area of the lesion area to total area was calculated using Image Pro Plus 5.0 software. Data were expressed as x±s, and SPSS 10.0 line single-factor analysis of variance was performed among groups, a significant difference was indicated when p<0.05.

apoE−/− mice [2] = assay: Blood lipids (LDL-C, HDL-C) in apoE-/- mice on high-fat diet; type: in vivo, mouse; conditions: apoE-/- mice serum, intragastric 15 weeks, compounds 30 mg/(kg·d), simvastatin 10 mg/(kg·d), x ± s; for HDL-C: n = 5, saline control 3.74 ± 0.62; for LDL-C: n = 5, saline control 7.33 ± 1.03
Excerpt: The effects of the compounds prepared in Examples 1-30 of the present invention on the percentages of areas of atherosclerotic plaque formation to the area of the entire artery in apoE−/− mice with a high-fat diet and the levels of low-density lipoprotein cholesterol and the levels of high-density lipoprotein, the specific steps are as follows:
1. animals: 160 ten-week-old, healthy and clean-grade apoE−/− mice (purchased from Peking University Experimental Animal Center), males, weight: 22-25 g, were housed in separate cages in a sterile laminar feeding room and fed freely. The mice were fed by a high-fat diet (conventional feed+0.15% cholesterol+21% lard) for 25 weeks, the room temperature was kept at 24° C., relative humidity: 50%, illumination time 7:30-19:30.
2. Grouping, administration method:
after 10 weeks of feeding, the animals were divided into the following 32 groups (n=5) by weight in a balanced and random manner, and killed 15 weeks after administration.
Normal saline control group: normal saline, intragastric administration.
Positive control group: simvastatin 10 mg/(kg·d), intragastric administration.
The compound groups prepared in Examples 1-30 of the present invention (30 groups in total): each was intragastric administered 30 mg/(kg·d).
(2) Determination of the levels of total cholesterol (TC), low-density cholesterol lipoprotein (LDL-C) and high-density lipoprotein cholesterol (HDL-C): using ROCHE 7060 automatic biochemical analyzer for the determination.
Data were expressed as x±s, and SPSS 10.0 line single-factor analysis of variance was performed among groups, a significant difference was indicated when p<0.05.

TNF-α = assay: Local TNF-α level in the arteries of apoE-/- mice (Millipore liquid phase chip); type: in vivo, mouse; conditions: high-fat diet, intragastric 15 weeks, compounds 30 mg/(kg·d), simvastatin 10 mg/(kg·d), x ± s, n = 5, saline control 25.58 ± 6.44
Excerpt: The effects of the compounds prepared in Examples 1-30 of the present invention on the percentages of areas of atherosclerotic plaque formation to the area of the entire artery in apoE−/− mice with a high-fat diet and the levels of low-density lipoprotein cholesterol and the levels of high-density lipoprotein, the specific steps are as follows: 1. animals: 160 ten-week-old, healthy and clean-grade apoE−/− mice (purchased from Peking University Experimental Animal Center), males, weight: 22-25 g, were housed in separate cages in a sterile laminar feeding room and fed freely. The mice were fed by a high-fat diet (conventional feed+0.15% cholesterol+21% lard) for 25 weeks, the room temperature was kept at 24° C., relative humidity: 50%, illumination time 7:30-19:30. 2. Grouping, administration method: after 10 weeks of feeding, the animals were divided into the following 32 groups (n=5) by weight in a balanced and random manner, and killed 15 weeks after administration. Normal saline control group: normal saline, intragastric administration. Positive control group: simvastatin 10 mg/(kg·d), intragastric administration. The compound groups prepared in Examples 1-30 of the present invention (30 groups in total): each was intragastric administered 30 mg/(kg·d). (3) Determination of TNF-α level: Millipore liquid phase chip method was used for the determination (Mcytomag-70K-3, Mouse Cytokine/Chemokine Magnetic Bead Panel). Data were expressed as x±s, and SPSS 10.0 line single-factor analysis of variance was performed among groups, a significant difference was indicated when p<0.05.

[3] = test system: RAW264.7 cell-derived foam cells; assay: Formation of RAW264.7 cell-derived foam cells (ox-LDL, oil red O, absorbance 490 nm); type: cell-based, mouse; conditions: 48 hours, model group = 100%, x ± s, n = 3
Method: The effects of the compounds prepared in Examples 1-30 of the present invention on the formation of RAW264.7 cell-derived foam cells, the specific steps are as follows:
1. Cell culture and foam cell model establishment:
RAW264.7 cells were cultured in DMEM culture medium with high glucose level (GIBCO) to a cell concentration of 1×10^6, planted in a 6-well plate, and 60 mg/L of ox-LDL (oxidized modified low-density lipoprotein, Peking Union Medical College) was added, foam cells were obtained after 48 hours of incubation.
2. Grouping and index detection:
The obtained foam cells were divided into 61 groups, 3 well plates were included in one group. After the treatment by adding the drugs (100 μL/well) for 48 hours, the medium was discarded, and after oil red 0 staining, the excess amount of oil red 0 was washed away. The cells were dissolved in isopropanol and the absorbance values were measured at 490 nm. The OD value of the model group was 100%, and the OD value of each group corrected by the number of cells was compared with the model group to obtain the ratio of intracellular lipid content. The larger the value, the more intracellular lipids, the higher the degree of formation of foam cells.
Normal saline control group: normal saline
Low dose groups of the compounds prepared in Examples 1-30 of the present invention:
10 μmol/L (solvents were normal saline).
High dose groups of compounds prepared in Examples 1-30 of the present invention: 30 μmol/L (solvents were normal saline).
Data were expressed as x±s, and SPSS 10.0 line single-factor analysis of variance was performed amoung groups, a significant difference was indicated when p<0.05.

RAW264.7 cells = assay: RAW264.7 cell survival rate by CCK8 method; type: cell-based, mouse; conditions: compound 10 prnol/L, 0.1% DMSO, CCK8, x ± s, n = 3, normal saline control = 1
Method: In order to further verify the toxicities of the compounds prepared in Examples 1-30 of the present invention, the mouse macrophage cell line RAW264.7 was cultured, and the compounds prepared in Examples 1-30 of the invention were prepared to a concentration of […] using culture medium, wherein the solvent was normal saline, the co-solvent was dimethyl sulfoxide (DMSO, the final concentratoin was 0.1%), and a 0.1% DMSO saline control group was provided. The cell survival rate was determined by CCK8 method. The data were expressed as x±s. SPSS 10.0 line single-factor analysis of variance was performed among groups. The difference was significant when p<0.05.

COC(=O)[C@H](Cc1c[nH]cn1)NCCC[C@](C)(O[C@H]1O[C@H](COC(C)=O)[C@@H](OC(C)=O)[C@H](OC(C)=O)[C@H]1OC(C)=O)C1CC[C@]2(C)[C@@H]1C(OC(C)=O)CC1[C@@]3(C)CC[C@H](OC(C)=O)C(C)(C)C3CC[C@]12C (stereo partly shown) [Compound 14]
Plaque area/total aorta area (%) (apoE−/− mice [1]): 9.34 ± 3.01 ^a % | HDL-C (apoE−/− mice [2]): 4.39 ± 0.59 ^a mmol/L | LDL-C (apoE−/− mice [2]): 5.58 ± 1.11 ^a mmol/L | TNF-α level (ng/g) (TNF-α): 16.92 ± 5.04 ^a ng/g | Foam cell formation (%) ([3]; dose 10 μmol/L): 78 ± 18 ^a % | Foam cell formation (%) ([3]; dose 30 μmol/L): 66 ± 16 ^a % | Cell Survival Rate (RAW264.7 cells): 0.83 ± 0.06

COC(=O)[C@H](CC1CNc2ccccc21)NCCC[C@](C)(O[C@H]1O[C@H](COC(C)=O)[C@@H](OC(C)=O)[C@H](OC(C)=O)[C@H]1OC(C)=O)C1CC[C@]2(C)[C@@H]1C(OC(C)=O)CC1[C@@]3(C)CC[C@H](OC(C)=O)C(C)(C)C3CC[C@]12C (stereo partly shown) [Compound 15]
Plaque area/total aorta area (%) (apoE−/− mice [1]): 10.22 ± 2.19 ^a % | HDL-C (apoE−/− mice [2]): 4.12 ± 0.82 ^a mmol/L | LDL-C (apoE−/− mice [2]): 6.54 ± 1.36 mmol/L | TNF-α level (ng/g) (TNF-α): 16.07 ± 3.67 ^a ng/g | Foam cell formation (%) ([3]; dose 10 μmol/L): 68 ± 12 ^a % | Foam cell formation (%) ([3]; dose 30 μmol/L): 56 ± 22 ^a % | Cell Survival Rate (RAW264.7 cells): 0.88 ± 0.04

CC(=O)OC1CC2[C@@]3(C)CC[C@H](OC(C)=O)C(C)(C)C3CC[C@@]2(C)[C@]2(C)CCC([C@](C)(CCC=C(C)C)OC(C)=O)[C@@H]12 (stereo partly shown) [Compound 16]
Plaque area/total aorta area (%) (apoE−/− mice [1]): 10.41 ± 2.09 ^a % | HDL-C (apoE−/− mice [2]): 4.12 ± 0.90 ^a mmol/L | LDL-C (apoE−/− mice [2]): 5.18 ± 1.26 ^a mmol/L | TNF-α level (ng/g) (TNF-α): 15.94 ± 4.29 ^a ng/g | Foam cell formation (%) ([3]; dose 10 μmol/L): 81 ± 12% | Foam cell formation (%) ([3]; dose 30 μmol/L): 72 ± 21 ^a % | Cell Survival Rate (RAW264.7 cells): 0.88 ± 0.01

CC(=O)OC1CC2[C@@]3(C)CC[C@H](OC(C)=O)C(C)(C)C3CC[C@@]2(C)[C@]2(C)CCC([C@](C)(CCC3OC3(C)C)OC(C)=O)[C@@H]12 (stereo partly shown) [Compound 17]
Plaque area/total aorta area (%) (apoE−/− mice [1]): 8.53 ± 2.57 ^a % | HDL-C (apoE−/− mice [2]): 5.55 ± 0.56 ^a mmol/L | LDL-C (apoE−/− mice [2]): 4.83 ± 1.51 ^a mmol/L | TNF-α level (ng/g) (TNF-α): 15.27 ± 4.65 ^a ng/g | Foam cell formation (%) ([3]; dose 10 μmol/L): 70 ± 15 ^a % | Foam cell formation (%) ([3]; dose 30 μmol/L): 55 ± 21 ^a % | Cell Survival Rate (RAW264.7 cells): 0.87 ± 0.07

CC(=O)OC1CC2[C@@]3(C)CC[C@H](OC(C)=O)C(C)(C)C3CC[C@@]2(C)[C@]2(C)CCC([C@](C)(CCC=O)OC(C)=O)[C@@H]12 (stereo partly shown) [Compound 18]
Plaque area/total aorta area (%) (apoE−/− mice [1]): 9.15 ± 2.85 ^a % | HDL-C (apoE−/− mice [2]): 4.72 ± 0.91 ^a mmol/L | LDL-C (apoE−/− mice [2]): 6.15 ± 1.28 mmol/L | TNF-α level (ng/g) (TNF-α): 16.65 ± 4.57 ^a ng/g | Foam cell formation (%) ([3]; dose 10 μmol/L): 84 ± 16% | Foam cell formation (%) ([3]; dose 30 μmol/L): 76 ± 14 ^a % | Cell Survival Rate (RAW264.7 cells): 0.85 ± 0.08

COC(=O)[C@H](CC(C)C)NCCC[C@](C)(OC(C)=O)C1CC[C@]2(C)[C@@H]1C(OC(C)=O)CC1[C@@]3(C)CC[C@H](OC(C)=O)C(C)(C)C3CC[C@]12C (stereo partly shown) [Compound 19]
Plaque area/total aorta area (%) (apoE−/− mice [1]): 8.34 ± 2.41 ^a % | HDL-C (apoE−/− mice [2]): 5.13 ± 0.83 ^a mmol/L | LDL-C (apoE−/− mice [2]): 4.62 ± 1.34 ^a mmol/L | TNF-α level (ng/g) (TNF-α): 11.23 ± 3.69 ^a ng/g | Foam cell formation (%) ([3]; dose 10 μmol/L): 63 ± 18 ^a % | Foam cell formation (%) ([3]; dose 30 μmol/L): 43 ± 9 ^a % | Cell Survival Rate (RAW264.7 cells): 0.91 ± 0.07

COC(=O)[C@@H](NCCC[C@](C)(OC(C)=O)C1CC[C@]2(C)[C@@H]1C(OC(C)=O)CC1[C@@]3(C)CC[C@H](OC(C)=O)C(C)(C)C3CC[C@]12C)C(C)C (stereo partly shown) [Compound 20]
Plaque area/total aorta area (%) (apoE−/− mice [1]): 9.67 ± 2.98 ^a % | HDL-C (apoE−/− mice [2]): 4.72 ± 0.52 ^a mmol/L | LDL-C (apoE−/− mice [2]): 6.62 ± 0.89 mmol/L | TNF-α level (ng/g) (TNF-α): 15.98 ± 5.33 ^a ng/g | Foam cell formation (%) ([3]; dose 10 μmol/L): 79 ± 15 ^a % | Foam cell formation (%) ([3]; dose 30 μmol/L): 63 ± 14 ^a % | Cell Survival Rate (RAW264.7 cells): 1.02 ± 0.13
